The source of these data is patent US4628090A, “Fluorine-containing antifolates incapable of polyglutanayte formation related compounds” (Rensselaer Polytechnic Institute, priority 1985, dated 1986).

“Also recorded” adds a separate entry of the source. Where two headings read alike, the source gives them in different places.

One data set deals with rat liver FPGS. Kind of data set: FPGS substrate activity, in vitro, rat liver FPGS. Type of data set: biochemical.
Data set [1] concerns folylpolyglutamate synthetase. Kind of data set: Polyglutamylation by FPGS: incubation with FPGS, ATP and glutamic acid (Tables 2 and 3). Type of data set: biochemical. The settings on record: Table 2 footnotes, ATP, glutamic acid.
Data set [2] deals with biosynthesis of thymidyate. The experiment in a line: Thymidylate biosynthesis (DNA synthesis) in pulse administration experiments. It is filed as cell-based.
For the next data set, the system named is hepatic cells. Type of data set: cell-based.
The subject of data set [3] is dihydrofolate reductase (DHFR). Kind of data set: DHFR inhibition. Type of data set: biochemical. The settings on record: in vitro, relative to MTX. An excerpt:
Hopefully, the potential for this new compound as a treatment for leukemia will be exploited further.

For another data set, the system named is cultured hepatic cells. The experiment in a line: Toxicity in long term pulse administration experiments, cultured hepatic cells. Type of data set: cell-based. An excerpt:
The major difference is that the cells given MTX contain large amounts (60%-90%) of MTX polyglutamate derivatives which efflux only very slowly, and thus are trapped in the cell. In contrast, cells given MFTX contain less than 5% of the analgous FMTX polyglutamates.

The test system of data set [4] is FPGS (folylpolyglutamate synthetase). The conditions noted are these: alternate substrate; McGuire and Coward, J. Biol. Chem. 260, 6747 (1985); cited from earlier work.
Data set [5] shares this test system. The experiment in a line: FPGS inhibition / chain termination by 4-fluoroglutamic acid. It is filed as biochemical. An excerpt:
The present invention for the first time presents a fluorinated compound, e.g. D,L-threo-4-fluoroglutamic acid which inhibits FPGS. It is proposed that by replacing the glutamate moiety of MTX with 4-fluoroglutamate, as in the present invention, the new MTX analog becomes capable of inhibiting DHFR and incapable of acting as a substrate for FPGS.

The test system is the same in data set [6]. The conditions noted are these: Rosowsky et al; cited from earlier work.
A further data set concerns DHFR. The conditions noted are these: Rosowsky et al; cited from earlier work.
A further data set relates to leukemia. The settings on record: Farber et al, 1948; cited from earlier work.

`CN(Cc1cnc2nc(N)nc(N)c2n1)c1ccc(C(=O)NC(CC(F)C(=O)O)C(=O)O)cc1` (stereo not drawn) [FMTX, 4-amino-10-methyl-pteroyl-4-fluoroglutamic acid]: the “substrate for FPGS” value in the data set on rat liver FPGS was “not a substrate”. Moreover, in [1], the polyglutamylation result was “resists”. Besides, in data set [2], the “biosynthesis of thymidyate, and therefore DNA synthesis” value is on record as “only very weakly affected”. For the same compound, in the data set with hepatic cells, the “efflux (transport out) from hepatic cells, rate” value is recorded as “essentially identical to unmetabolized MTX”; the “polyglutamate derivatives contained in cells” value was “less than 5%”; the “uptake by hepatic cells (rate and extent)” value is “nearly identical in terms of rate and extent as unmetabolized MTX”. The “inhibitory activity against DHFR” value in data set [3] is recorded as “retain the potent inhibitory activity of MTX against DHFR; also recorded: comparable to MTX”. In the data set with cultured hepatic cells (long term pulse administration, cultured hepatic cells, relative to MTX), the toxicity levels result is given as “several thousand times lower than MTX”. In addition, the toxicity to cells result in the data set on cultured hepatic cells (preliminary biochemistry, relative to MTX) was “without being nearly as toxic to cells”. The cytotoxicity result in the data set on cultured hepatic cells (pulse conditions) was “marked decrease in cytotoxicity”.

For the compound `NC(CC(F)C(=O)O)C(=O)O` [D,L-threo-4-fluoroglutamic acid], in [4], the “chain termination of the FPGS reaction” value was “chain termination of the FPGS reaction”. The “inhibition of FPGS” value in [5] is on record as “inhibits FPGS”.

On to `CN(Cc1cnc2nc(N)nc(N)c2n1)c1ccc(C(=O)NC(CCS(=O)(=O)O)C(=O)O)cc1` (racemic), for which the “inhibition of FPGS” value in data set [6] is “appears to weakly inhibit FPGS”. Also, in the data set with DHFR, the “affinity for DHFR” value is listed as “tightly bind DHFR”.

As to `CN(Cc1cnc2nc(N)nc(N)c2n1)c1ccc(C(=O)N[C@@H](CCC(=O)O)C(=O)O)cc1` [Methotrexate], the polyglutamylation result in data set [1] is recorded as “undergoes”. In addition, the “polyglutamate derivatives contained in cells” value with hepatic cells is 60-90%. For the same compound, the remission in leukemia result with leukemia is “temporary remission in leukemia”.

As for `Nc1nc2ncc(CNc3ccc(C(=O)N[C@@H](CCC(=O)O)C(=O)O)cc3)nc2c(=O)[nH]1` [Folic Acid], the polyglutamylation entry in data set [1] is given as “undergoes polyglutamylation”.
